Read-outs that look alike come from different tables or passages of the source.
How the values were obtained:
[1] = Thermal analysis (DSC) of crystalline salt; type: physicochemical; details: crystalline monohydrochloride salt, heating ramp 10° C./min
Method: Differential scanning calorimetry (DSC) was performed using a TA Instruments Model Q-100 module with a Thermal Analyst controller. Data were collected and analyzed using TA Instruments Thermal Solutions software. A 1.64 mg sample of the crystalline form of Example 2 was accurately weighed into a covered aluminum pan. After a 5 minute isothermal equilibration period at 22° C., the sample was heated using a linear heating ramp of 10° C./min from 22° C. to 250° C.

hSERT = target: T1, hSERT (Homo sapiens, UniProt P31645); assay: hSERT binding assay (Assay 1)
T1 construct: expressed in transfected cells; host or cells: HEK-293 derived cell line, stably transfected; membrane preparation
How it was run: (§1)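 Membranes from HEK-293 cells stably expressing human NET or SERT competed test compound against ^3H-nisoxetine (hNET) or ^3H-citalopram (hSERT). Buffer was 50 mM Tris-HCl pH 7.4, 120 mM NaCl, 5 mM KCl, 0.1% BSA and 400 μM ascorbic acid.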

hNET = target: T2, hNET (Homo sapiens, UniProt P23975); assay: hNET binding assay (Assay 1); details: read-out: NET pKi (converted)
T2 construct: expressed in transfected cells; host or cells: HEK-293 derived cell line, stably transfected; membrane preparation
How it was run: as §1

[2] = ratio of binding Ki at hSERT to Ki at hNET, rounded off to the nearest tenth
[3] = membranes of HEK-293 cells expressing hNET, 1.0 nM 3H-nisoxetine
[4] = ratio of SERT Ki to NET Ki from binding assays
[5] = ratio of SERT Ki to NET Ki (binding)
[6] = ratio of binding Ki at SERT to Ki at NET, the tables list only compounds with a ratio in the range 0.1-100
[7] = hNET binding, the tables list only compounds with NET pKi≧8

T1 sequence (P31645 whole entry): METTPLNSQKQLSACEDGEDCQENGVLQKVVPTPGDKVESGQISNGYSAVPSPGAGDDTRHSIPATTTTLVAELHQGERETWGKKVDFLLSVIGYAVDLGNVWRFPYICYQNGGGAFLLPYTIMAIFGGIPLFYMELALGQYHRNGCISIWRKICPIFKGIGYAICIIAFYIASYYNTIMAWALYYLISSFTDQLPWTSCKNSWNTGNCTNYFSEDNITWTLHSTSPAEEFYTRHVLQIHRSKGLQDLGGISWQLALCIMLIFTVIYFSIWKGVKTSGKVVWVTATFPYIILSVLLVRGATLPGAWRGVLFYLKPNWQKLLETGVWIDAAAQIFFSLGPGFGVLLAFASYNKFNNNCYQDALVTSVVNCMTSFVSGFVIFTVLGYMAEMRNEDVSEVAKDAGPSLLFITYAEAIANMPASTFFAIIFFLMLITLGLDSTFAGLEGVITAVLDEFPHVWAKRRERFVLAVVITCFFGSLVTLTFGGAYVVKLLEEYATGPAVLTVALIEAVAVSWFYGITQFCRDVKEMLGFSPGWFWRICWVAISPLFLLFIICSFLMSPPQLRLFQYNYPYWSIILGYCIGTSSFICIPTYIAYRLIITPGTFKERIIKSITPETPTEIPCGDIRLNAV
T2 sequence (P23975 whole entry): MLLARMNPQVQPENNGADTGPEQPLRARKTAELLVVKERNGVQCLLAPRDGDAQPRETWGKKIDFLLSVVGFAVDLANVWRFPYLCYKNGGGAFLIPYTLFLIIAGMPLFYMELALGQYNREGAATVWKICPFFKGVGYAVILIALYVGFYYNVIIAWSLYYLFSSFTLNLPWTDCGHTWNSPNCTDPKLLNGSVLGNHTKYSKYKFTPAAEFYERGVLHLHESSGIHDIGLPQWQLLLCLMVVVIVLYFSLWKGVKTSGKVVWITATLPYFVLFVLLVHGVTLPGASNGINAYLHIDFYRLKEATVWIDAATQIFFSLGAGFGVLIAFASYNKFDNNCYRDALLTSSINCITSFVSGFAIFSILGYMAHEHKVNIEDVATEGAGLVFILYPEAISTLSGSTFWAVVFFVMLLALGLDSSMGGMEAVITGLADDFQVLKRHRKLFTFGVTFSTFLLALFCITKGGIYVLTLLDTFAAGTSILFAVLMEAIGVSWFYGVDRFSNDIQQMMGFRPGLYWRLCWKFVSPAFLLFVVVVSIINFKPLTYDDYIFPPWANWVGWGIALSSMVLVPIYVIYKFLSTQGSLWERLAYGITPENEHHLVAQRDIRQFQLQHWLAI

With `Fc1ccc(F)c(O[C@H](c2ccccc2)[C@@H]2CCNC2)c1Cl` [Ex. 14, (R)-3-[(S)-(2-chloro-3,6-difluorophenoxy)phenyl-methyl]pyrrolidine] the “no thermal decomposition below (DSC)” value [1] was ≥ 160 °C.
In the case of `Fc1cc(F)c(Cl)c(O[C@@H](c2ccccc2)[C@H]2CCNC2)c1Cl` [Ex. 11, (S)-3-[(R)-(2,6-dichloro-3,5-difluorophenoxy)phenylmethyl]pyrrolidine], the “no thermal decomposition below (DSC)” value [1] is reported as ≥ 190.7 °C.
For `CSc1ccccc1OC(c1ccccc1)C1CCNC1` (stereo not drawn) [Compound 19-30], the “SERT Ki/NET Ki” value (hSERT; [2]) was 63 and the Ki (hNET; [3]) was 0.398 nM.
In the case of `COc1ccccc1O[C@@H](c1cc(F)cc(F)c1)[C@@H]1CCNC1` (racemic) [Compound 20-31], the “SERT Ki/NET Ki” value (hSERT; [2]) is reported as 6.3 and the Ki (hNET; [3]) is reported as 5.01 nM.
In the case of `Fc1cc(Cl)cc(C(Oc2ccc(Cl)cc2F)C2CCNC2)c1` (stereo not drawn) [28-11], the “SERT Ki/NET Ki” value (hSERT; [4]) is reported as 0.8 and the Ki (hNET; hNET binding assay) is reported as 2.51 nM.
In the case of `Cc1ccc(F)c(OC(c2ccccc2)C2CCNC2)c1F` (stereo not drawn) [40-25], the “SERT Ki/NET Ki” value (hSERT; [5]) is reported as 2 and the Ki (hNET; hNET binding) is reported as 0.501 nM.
With `Fc1cccc(C(Oc2cccc(Cl)c2)C2CCNC2)c1` (stereo not drawn) [Compound 22-3] the “SERT Ki/NET Ki” value (hSERT; [2]) was 0.1 and the Ki (hNET; [3]) was 7.94 nM.
With `Cc1ccc(F)cc1OC(c1ccccc1)C1CCNC1` (stereo not drawn) [29-15] the “SERT Ki/NET Ki” value (hSERT; [4]) was 1.3 and the Ki (hNET; hNET binding assay) was 3.98 nM.
In the case of `COc1ccc(F)c(F)c1OC(c1cc(F)cc(F)c1)C1CCNC1` (stereo not drawn) [41-4], the “SERT Ki/NET Ki” value (hSERT; [5]) is reported as 1 and the Ki (hNET; hNET binding) is reported as 1 nM.
With `Fc1ccc(Br)cc1OC(c1ccccc1)C1CCNC1` (stereo not drawn) [29-7] the “SERT Ki/NET Ki” value (hSERT; [4]) was 1.6 and the Ki (hNET; hNET binding assay) was 0.794 nM.
For `Clc1ccc(Cl)c(OC(c2ccccc2)C2CCNC2)c1` (stereo not drawn) [29-11], the “SERT Ki/NET Ki” value (hSERT; [4]) was 0.2 and the Ki (hNET; hNET binding assay) was 3.98 nM.
In the case of `Clc1cc(Cl)c(Cl)c(O[C@H](c2ccccc2Cl)[C@@H]2CCNC2)c1` (racemic) [39-4], the “SERT Ki/NET Ki” value (hSERT; [5]) is reported as 0.1 and the Ki (hNET; hNET binding) is reported as 3.98 nM.
With `Fc1cccc(C(Oc2ccccc2Cl)C2CCNC2)c1` (stereo not drawn) [Compound 20-4] the “SERT Ki/NET Ki” value (hSERT; [2]) was 0.63 and the Ki (hNET; [3]) was 2.51 nM.
In the case of `Fc1ccc(Cl)c(F)c1OC(c1ccccc1)C1CCNC1` (stereo not drawn) [40-14], the “SERT Ki/NET Ki” value (hSERT; [5]) is reported as 0.4 and the Ki (hNET; hNET binding) is reported as 0.501 nM.
For `CCc1ccccc1OC(c1ccccc1)C1CCNC1` (stereo not drawn) [Compound 19-11], the “SERT Ki/NET Ki” value (hSERT; [2]) was 4 and the Ki (hNET; [3]) was 3.16 nM.
For `Fc1ccc(Cl)cc1O[C@H](c1ccccc1)[C@@H]1CCNC1` [29-6], the “SERT Ki/NET Ki” value (hSERT; [4]) was 0.3 and the Ki (hNET; hNET binding assay) was 3.98 nM.
For `CCOC(=O)c1cc(Cl)ccc1O[C@@H](c1ccccc1)[C@H]1CCNC1` [27-36], the “SERT Ki/NET Ki” value (hSERT; [4]) was 0.6 and the Ki (hNET; hNET binding assay) was 3.98 nM.
For `Cc1ccc(F)c(O[C@@H](c2ccccc2)[C@H]2CCNC2)c1Cl` [Ex. 13, (S)-3-[(R)-(2-chloro-6-fluoro-3-methylphenoxy)phenylmethyl]pyrrolidine], the “SERT Ki/NET Ki” value (hSERT; [5]) was 1.3 and the Ki (hNET; hNET binding) was 0.251 nM.
With `Fc1cc(F)cc([C@@H](Oc2c(F)ccc(F)c2Cl)[C@@H]2CCNC2)c1` [41-31] the “SERT Ki/NET Ki” value (hSERT; [5]) was 0.6 and the Ki (hNET; hNET binding) was 0.251 nM.
For `Cc1cc(Cl)c(OC(c2ccccc2)C2CCNC2)cc1F` (stereo not drawn) [42-4], the “SERT Ki/NET Ki” value (hSERT; [5]) was 0.5 and the Ki (hNET; hNET binding) was 2.51 nM.
For `Clc1cc(Cl)cc(O[C@H](c2ccccc2)[C@@H]2CCNC2)c1` [Ex. 16, (R)-3-[(S)-(3,5-Dichlorophenoxy)phenylmethyl]pyrrolidine], the “no thermal decomposition below (DSC)” value [1] was ≥ 220 °C.
For `Fc1ccc(Cl)c(F)c1OC(c1ccccc1)C1CCNC1` (stereo not drawn) [40-15], the “SERT Ki/NET Ki” value (hSERT; [5]) was 1.3 and the Ki (hNET; hNET binding) was 0.251 nM.
In the case of `COC(=O)c1cc(F)cc(F)c1O[C@@H](c1ccccc1)[C@H]1CCNC1` [44-28], the “SERT Ki/NET Ki” value (hSERT; [6]) is reported as 2.5 and the Ki (hNET; [7]) is reported as 1 nM.
In the case of `CC(C)Oc1ccccc1OC(c1ccccc1)C1CCNC1` (stereo not drawn) [Compound 19-17], the “SERT Ki/NET Ki” value (hSERT; [2]) is reported as 40 and the Ki (hNET; [3]) is reported as 3.16 nM.
For `Cc1ccc(OC(c2ccccc2)C2CCNC2)cc1` (stereo not drawn) [Compound 23-6], the “SERT Ki/NET Ki” value (hSERT; [2]) was 0.2 and the Ki (hNET; [3]) was 6.31 nM.
In the case of `Fc1c(Cl)ccc(OC(c2ccccc2)C2CCNC2)c1Cl` (stereo not drawn) [36-10], the “SERT Ki/NET Ki” value (hSERT; [5]) is reported as 0.1 and the Ki (hNET; hNET binding) is reported as 3.16 nM.
With `Fc1cc(F)cc(C(Oc2ccc(Cl)cc2F)C2CCNC2)c1` (stereo not drawn) [28-9] the “SERT Ki/NET Ki” value (hSERT; [4]) was 0.3 and the Ki (hNET; hNET binding assay) was 3.16 nM.
For `COc1ccccc1O[C@H](c1cccc(Cl)c1)[C@@H]1CCNC1` (racemic) [Compound 20-20], the “SERT Ki/NET Ki” value (hSERT; [2]) was 13 and the Ki (hNET; [3]) was 2.51 nM.
With `Fc1cccc(O[C@@H](c2ccccc2)[C@H]2CCNC2)c1Cl` [Ex. 9-4, (S)-3-[(R)-(2-chloro-3-fluorophenoxy)phenylmethyl]pyrrolidine] the “SERT Ki/NET Ki” value (hSERT; [2]) was 6.3 and the Ki (hNET; [3]) was 0.631 nM.
With `COC(=O)c1c(F)c(F)c(F)c(F)c1OC(c1ccccc1)C1CCNC1` (stereo not drawn) [49-8] the “SERT Ki/NET Ki” value (hSERT; [6]) was 0.4 and the Ki (hNET; [7]) was 3.16 nM.
For `Cc1c(F)cccc1OC(c1ccccc1)C1CCNC1` (racemic) [Compound 25-17], the “SERT Ki/NET Ki” value (hSERT; [2]) was 0.2 and the Ki (hNET; [3]) was 2.51 nM.
With `Cc1cc(F)cc([C@@H](Oc2c(Cl)ccc(C)c2Cl)[C@@H]2CCNC2)c1` (racemic) [41-23] the “SERT Ki/NET Ki” value (hSERT; [5]) was 0.5 and the Ki (hNET; hNET binding) was 1.58 nM.
In the case of `Cc1cccc(F)c1O[C@@H](c1ccccc1)[C@H]1CCNC1` [31-7], the “SERT Ki/NET Ki” value (hSERT; [4]) is reported as 5 and the Ki (hNET; hNET binding assay) is reported as 0.2 nM.
In the case of `COc1ccc(Cl)cc1OC(c1ccccc1)C1CCNC1` (stereo not drawn) [29-21], the “SERT Ki/NET Ki” value (hSERT; [4]) is reported as 1 and the Ki (hNET; hNET binding assay) is reported as 3.16 nM.
For `Fc1ccc(Cl)c(Cl)c1OC(c1ccccc1)C1CCNC1` (stereo not drawn) [40-13], the “SERT Ki/NET Ki” value (hSERT; [5]) was 0.3 and the Ki (hNET; hNET binding) was 0.2 nM.
With `Cc1ccc(OC(c2ccccc2)C2CCNC2)c(F)c1F` (stereo not drawn) [36-5] the “SERT Ki/NET Ki” value (hSERT; [5]) was 0.5 and the Ki (hNET; hNET binding) was 1.26 nM.
In the case of `Fc1ccc(F)c(OC(c2ccccc2)C2CCNC2)c1` (racemic) [29-1], the “SERT Ki/NET Ki” value (hSERT; [4]) is reported as 4 and the Ki (hNET; hNET binding assay) is reported as 2 nM.
In the case of `COc1cccc(F)c1OC(c1ccccc1)C1CCNC1` (stereo not drawn) [31-15], the “SERT Ki/NET Ki” value (hSERT; [4]) is reported as 2 and the Ki (hNET; hNET binding assay) is reported as 2 nM.
For `Cc1ccc(Cl)c(O[C@H](c2ccccc2)[C@@H]2CCNC2)c1F` [40-28], the “SERT Ki/NET Ki” value (hSERT; [5]) was 0.4 and the Ki (hNET; hNET binding) was 0.794 nM.
For `Fc1ccccc1C(Oc1cccc(Cl)c1Cl)C1CCNC1` (stereo not drawn) [Compound 26-1], the “SERT Ki/NET Ki” value (hSERT; [4]) was 0.1 and the Ki (hNET; hNET binding assay) was 1.58 nM.
For `Cc1cc(F)ccc1O[C@@H](c1ccccc1)[C@H]1CCNC1` [27-14], the “SERT Ki/NET Ki” value (hSERT; [4]) was 0.3 and the Ki (hNET; hNET binding assay) was 2 nM.
In the case of `Fc1cc(Cl)cc(F)c1O[C@@H](c1ccccc1)[C@H]1CCNC1` [44-9], the “SERT Ki/NET Ki” value (hSERT; [6]) is reported as 0.1 and the Ki (hNET; [7]) is reported as 2.51 nM.
In the case of `Ic1ccccc1OC(c1ccccc1)C1CCNC1` (stereo not drawn) [Compound 19-8], the “SERT Ki/NET Ki” value (hSERT; [2]) is reported as 0.6 and the Ki (hNET; [3]) is reported as 1 nM.
For `CCc1cc(F)ccc1OC(c1cc(F)cc(F)c1)C1CCNC1` (stereo not drawn) [28-14], the “SERT Ki/NET Ki” value (hSERT; [4]) was 3.2 and the Ki (hNET; hNET binding assay) was 1.58 nM.
For `COc1ccccc1OC(c1cccc(C(N)=O)c1)C1CCNC1` (stereo not drawn) [Compound 20-30], the “SERT Ki/NET Ki” value (hSERT; [2]) was 25 and the Ki (hNET; [3]) was 2.51 nM.
With `Fc1cc(F)c(F)c(OC(c2ccccc2Cl)C2CCNC2)c1` (stereo not drawn) [39-2] the “SERT Ki/NET Ki” value (hSERT; [5]) was 0.6 and the Ki (hNET; hNET binding) was 6.31 nM.
With `Cc1ccc(Cl)c(O[C@@H](c2cc(F)cc(F)c2)[C@H]2CCNC2)c1Cl` [41-27] the “SERT Ki/NET Ki” value (hSERT; [5]) was 0.8 and the Ki (hNET; hNET binding) was 0.794 nM.
For `Clc1ccc(Oc2cccc(OC(c3ccccc3)C3CCNC3)c2)cc1` (stereo not drawn) [Compound 21-16], the “SERT Ki/NET Ki” value (hSERT; [2]) was 0.3 and the Ki (hNET; [3]) was 6.31 nM.

Source: patent US7888386B2, “3-(phenoxyphenylmethyl)pyrrolidine compounds” (Theravance, Inc., priority 2008, dated 2011)
